In patent US12076304B2, “Compositions comprising 15-HEPE and methods of treating or preventing hematologic disorders, and/or related diseases” (priority 2020, dated 2024):
Entries after “also recorded” stand apart in the source; their conditions may differ.

Legend:
NAFLD patients [1] = test: Phase IIa study in NAFLD patients: hepatic fat by CAP; type: in vivo, human; details: 16 weeks
Method: (§1) The study was planned to include 96 evaluable patients with 32 patients randomized per treatment group.
Liver stiffness and CAP: Liver stiffness and CAP were assessed using transient elastography (e.g., FibroScan® 502 Touch model or equivalent). Patients were fasted and scanned at the same time of the day, if possible, for baseline (Week 0) and Visit 10 (Week 16). For this assessment the following conditions were met: patients were lying in dorsal decubitus position with the right arm in maximal abduction behind the head, in a similar position to that used for liver biopsy (LB); the tip of the transducer was placed on the skin between the ribs over the right lobe of the liver (the physician took the measurements with the probe placed in the intercostal space); during the FibroScan® examination the choice of M+ or XL+ probe was determined by the Automatic Probe Selection tool (APS) (If, the APS tool advises to use the “XL+probe” or “switch” continuously between “M+ and XL+ probe”, only the XL+ probe was used); and the operator, assisted by an ultrasonic time motion image, located a portion of the liver which is free of large vascular structures (the depth of measurement was between 35-75 mm for the XL+ probe and 25-65 mm for the M+ probe and the explored volume will be 3 cm^3). […] The final stiffness and CAP values was recorded as median values of valid measurements.

α-SMA mRNA = test: BDL mice liver quantitative RT-PCR, Alpha-SMA; type: in vivo; details: for Alpha-SMA relative mRNA expression level: BDL mice liver, normalized to 36B4, Sham 1.00, mean ± SD
Method: Quantitative RT-PCR: Total ribonucleic acid (RNA) was extracted from liver samples using RNAiso (Takara Bio, Japan) according to the manufacturer's instructions. One μg of RNA was reverse-transcribed using a reaction mixture containing 4.4 mM magnesium chloride (MgCl2) (F. Hoffmann-La Roche, Switzerland), 40 U RNase inhibitor (Toyobo, Japan), 0.5 mM dNTP (Promega, USA), 6.28 μM random hexamer (Promega), 5× first strand buffer (Promega), 10 mM dithiothreitol (Invitrogen, USA) and 200 U MMLV-RT (Invitrogen) in a final volume of 20 μL. The reaction was carried out for 1 hour at 37° C., followed by 5 minutes at 99° C. Real-time PCR was performed using real-time PCR DICE and TB Green™ Premix Ex Taq™ II (Takara Bio). To calculate the relative mRNA expression level, the expression of each gene (α-SMA, TIMP-1, TGF-β and Collagen Type 1) was normalized to that of reference gene 36B4 (gene symbol: Rplp0). Information regarding the PCR-primer sets and the plate layout are described in Tables 8 and 9.

[2] = test system: cholestasis induced by BDL; test: BDL mice: Sirius red staining of liver sections, fibrosis area; type: in vivo; details: for Sirius red-positive area: BDL mice liver, Day 14, mean ± SD, n = 8; for fibrosis area compared with the Vehicle group: BDL mice
Method: […]: To visualize collagen deposition, Bouin's fixed liver sections were stained using picro-Sirius red solution (Waldeck, Germany). For quantitative analysis of fibrosis area, bright field images of Sirius red-stained sections were captured using a digital camera (DFC295; Leica, Germany) at 100-fold magnification, and the positive areas in 5 fields/section were measured using ImageJ software (National Institute of Health, USA).

[3] = test system: cholestasis induced by BDL; test: BDL mice: serum biochemistry (ALT, total bilirubin); type: in vivo; details: for Serum ALT / Serum Total Bilirubin: n = 8
Method: Sample Collection: For serum samples, non-fasting blood was collected in serum separate tubes without anticoagulant through direct cardiac puncture and centrifuged at 3,500×g for 4 minutes at 4° C. The supernatant was collected and stored at −80° C. for biochemistry (30 μL) and shipping (all the remaining). For liver samples, left lateral lobe was collected and cut into 6 pieces. Two pieces of left lateral lobe were fixed in Bouin's solution and then embedded in paraffin. Samples were stored at room temperature for histological analysis. The other 2 pieces of left lateral lobe were embedded in O.C.T. compound and quick frozen in liquid nitrogen. Samples were stored at −80° C. The remaining pieces of left lateral lobe was snap frozen in liquid nitrogen and stored at −80° C. for gene expression analyses. Right medial lobe, left medial lobe, right lobe and caudate lobe were snap frozen in liquid nitrogen and stored at −80° C. for shipping.

NAFLD patients [4] = test: Phase IIa study in NAFLD patients: lipid profile and lipidomics; type: in vivo, human; details: for Triglycerides (median placebo-corrected % change from baseline): 2 g
Method: as §1
Clinical Laboratory Safety Tests: Safety tests were performed for hematology, serum biochemistry, coagulation, lipid profile, and urinalysis: Blood and urine samples were taken as per the Study Flow Chart in Table 19 for routine hematology, serum biochemistry, coagulation and urinalysis tests, along with a Lipid Profile. All samples were analyzed in the central laboratory. All subjects were fasted for a minimum of 8 hours prior to blood sampling. If subjects had not fasted for a minimum of 8 hours, the duration of fasting time was recorded, and subjects encouraged to fast appropriately for the next clinical visit. • Hematology: Full blood count to include red cell count, hemoglobin, hematocrit, white cell count, differential white cell count, platelet count and reticulocyte count. • Serum biochemistry: Urea (blood urea nitrogen; BUN), creatinine, uric acid, total bilirubin, Indirect and Direct Bilirubin, sodium, bicarbonate potassium, phosphorus, calcium chloride, alkaline phosphatase (ALP), aspartate aminotransferase (AST), alanine aminotransferase (ALT), ALT/AST ratio, lactate dehydrogenase (LDH), creatine phosphokinase (CPK), albumin, total protein, cholesterol, triglycerides, glucose, C-reactive protein (CRP). • Coagulation: prothrombin time (PT), international normalized ratio (INR) and activated partial […]. • Lipid Profile: LDL, HDL, and VLDL-C. • Urinalysis: pH, protein, glucose, blood, ketones, leukocytes, leukocyte esterase, bilirubin, specific gravity, urobilinogen and nitrate. Reflex micro if blood, protein, leukocyte esterase or nitrate/nitrite are present.
Exploratory analysis: The exploratory analysis included analysis of lipid and metabolic parameters including total cholesterol, triglycerides, very low-density lipoprotein cholesterol (VLDL-C), low density lipoprotein cholesterol (LDL-C), high density lipoprotein cholesterol (HDL-C), non-high-density lipoprotein cholesterol (non-HDL-C), remnant-like particle cholesterol (RLP-C), fasting glucose, insulin, free fatty acids and hemoglobin A1C (HbA1C). Additional exploratory analysis included high throughput lipidomics and proteomics.

[5] = 50 mg/kg PO QD Day 0-13, Day 14, mean ± SD
[6] = 250 mg/kg PO QD Day 0-13, Day 14, mean ± SD
[7] = 500 mg/kg PO QD Day 0-13, Day 14, mean ± SD

Substance: 15-HEPE [DS102]
- hepatic fat content as assessed by CAP (NAFLD patients [1]): reduced
- Alpha-SMA relative mRNA expression level (α-SMA mRNA; 50 mg/kg PO QD Day 0-13): 3.21 ± 1.67
- Alpha-SMA relative mRNA expression level (α-SMA mRNA; 250 mg/kg PO QD Day 0-13): 2.66 ± 1.33
- Alpha-SMA relative mRNA expression level (α-SMA mRNA; 500 mg/kg PO QD Day 0-13): 1.42 ± 0.75
- α-SMA mRNA expression level compared with the Vehicle group (α-SMA mRNA; BDL mice, 500 mg/kg PO QD Day 0-13, 500 mg/kg): tended to decrease; also recorded: trend approaching significance
- α-SMA mRNA expression level, Vehicle group vs the DS102 treatment groups (α-SMA mRNA; BDL mice, DS102 treatment groups as a whole): no significant differences
- Sirius red-positive area ([2]; 50 mg/kg PO QD Day 0-13): 1.70 ± 0.63%
- Sirius red-positive area ([2]; 250 mg/kg PO QD Day 0-13): 1.06 ± 0.48%
- Sirius red-positive area ([2]; 500 mg/kg PO QD Day 0-13): 1.42 ± 0.60%
- fibrosis area compared with the Vehicle group ([2]; 50 mg/kg PO QD Day 0-13): no significant difference
- fibrosis area compared with the Vehicle group ([2]; 250 mg/kg PO QD Day 0-13): significant decrease
- fibrosis area compared with the Vehicle group ([2]; 500 mg/kg PO QD Day 0-13, 500 mg/kg): tended to decrease; also recorded: trend approaching significance
- Serum ALT [3, 5]: 402 ± 112 U/L
- Serum Total Bilirubin [3, 5]: 26.8 ± 6.9 mg/dL
- Serum ALT [3, 6]: 351 ± 155 U/L
- Serum Total Bilirubin [3, 6]: 23.5 ± 9.8 mg/dL
- Serum ALT [3, 7]: 383 ± 147 U/L
- Serum Total Bilirubin [3, 7]: 26.2 ± 6.1 mg/dL
- serum ALT level vs Vehicle group ([3]; 50, 250 and 500 mg/kg PO QD): no significant differences
- serum total bilirubin level vs Vehicle group ([3]; 50, 250 and 500 mg/kg PO QD): no significant differences
- Triglycerides (median placebo-corrected % change from baseline) (NAFLD patients [4]; Week 16, Full Analysis Set): −40.2%
- Triglycerides (median placebo-corrected % change from baseline) (NAFLD patients [4]; Week 16, Subgroup: High Triglycerides (>200 mg/dL)): −20.4%
- Triglycerides (median placebo-corrected % change from baseline) (NAFLD patients [4]; Week 16, Subgroup: Triglycerides > Upper Limit Normal (>150 mg/dL)): −39.0%
- levels of multiple glycerophospholipid groups (NAFLD patients [4]; NAFLD patients, 2 g per day): significantly increased
- levels of multiple hepatotoxic diglycerides (NAFLD patients [4]; NAFLD patients, 2 g per day): significantly decreased
- triglyceride levels (NAFLD patients [4]; NAFLD patients, Week 16): lowered
- lipid profile (total cholesterol, VLDL-C, non-HDL-C, RLP cholesterol, triglycerides) (NAFLD patients [4]; NAFLD patients, Week 16, safety analysis set): significantly improved
